Reference: ChEMBL document CHEMBL1275392, “Assessment of chemoselective neoglycosylation methods using chlorambucil as a model” (2010)

Legend:
Type in all cases: functional
SF-268 [1] = assay: Growth inhibition of human SF268 cells after 7 days by celltiter-glo assay; conditions: SF-268, 168 h
OVCAR-3 = assay: Growth inhibition of human OVCAR-3 cells at 10 uM after 7 days by celltiter-glo assay; conditions: OVCAR-3, 168 h, read-out: GI
HL-60(TB) [2] = assay: Growth inhibition of human HL-60(TB) cells at 10 uM after 7 days by celltiter-glo assay; conditions: HL-60, 168 h, read-out: GI
T47D [3] = assay: Growth inhibition of human T47D cells after 7 days by celltiter-glo assay; conditions: 168 h
MOLT-4 = assay: Growth inhibition of human MOLT4 cells after 7 days by celltiter-glo assay; conditions: MOLT-4, 168 h
SNB-19 [4] = assay: Growth inhibition of human SNB19 cells at 10 uM after 7 days by celltiter-glo assay; conditions: SNB-19, 168 h, read-out: GI
M14 = assay: Growth inhibition of human M14 cells after 7 days by celltiter-glo assay; conditions: M14, 168 h
A498 = assay: Growth inhibition of human A498 cells after 7 days by celltiter-glo assay; conditions: A498, 168 h
BT-549 [5] = assay: Growth inhibition of human BT549 cells after 7 days by celltiter-glo assay; conditions: BT-549, 168 h
SNB-75 = assay: Growth inhibition of human SNB75 cells at 10 uM after 7 days by celltiter-glo assay; conditions: SNB-75, 168 h, read-out: GI
BT-549 [6] = assay: Growth inhibition of human BT549 cells at 10 uM after 7 days by celltiter-glo assay; conditions: BT-549, 168 h, read-out: GI
OVCAR-4 [7] = assay: Growth inhibition of human OVCAR4 cells after 7 days by celltiter-glo assay; conditions: OVCAR-4, 168 h
OVCAR-8 = assay: Growth inhibition of human OVCAR8 cells after 7 days by celltiter-glo assay; conditions: OVCAR-8, 168 h
A549 [8] = assay: Growth inhibition of human A549 cells expressing p53 after 7 days by celltiter-glo assay; conditions: A549, 168 h
T47D [9] = assay: Growth inhibition of human T47D cells at 10 uM after 7 days by celltiter-glo assay; conditions: 168 h, read-out: GI
OVCAR-5 = assay: Growth inhibition of human OVCAR5 cells at 10 uM after 7 days by celltiter-glo assay; conditions: OVCAR-5, 168 h, read-out: GI
COLO 205 [10] = assay: Growth inhibition of human COLO205 cells after 7 days by celltiter-glo assay; conditions: COLO 205, 168 h
786-0 = assay: Growth inhibition of human 786-0 cells at 10 uM after 7 days by celltiter-glo assay; conditions: 786-0, 168 h, read-out: GI
SK-MEL-28 = assay: Growth inhibition of human SK-MEL-28 cells after 7 days by celltiter-glo assay; conditions: SK-MEL-28, 168 h
A549 [11] = assay: Growth inhibition of human A549 cells after 7 days by celltiter-glo assay; conditions: A549, 168 h
TK-10 = assay: Growth inhibition of human TK10 cells after 7 days by celltiter-glo assay; conditions: TK-10, 168 h
SN12C = assay: Growth inhibition of human SN12C cells at 10 uM after 7 days by celltiter-glo assay; conditions: 168 h, read-out: GI
NCI-H322M = assay: Growth inhibition of human NCI-H322M cells after 7 days by celltiter-glo assay; conditions: 168 h
NCI-H23 = assay: Growth inhibition of human NCI-H23 cells after 7 days by celltiter-glo assay; conditions: NCI-H23, 168 h
COLO 205 [12] = assay: Growth inhibition of human COLO205 cells at 10 uM after 7 days by celltiter-glo assay; conditions: COLO 205, 168 h, read-out: GI
HOP-92 = assay: Growth inhibition of human HOP92 cells at 10 uM after 7 days by celltiter-glo assay; conditions: HOP-92, 168 h, read-out: GI
NCI-H522 = assay: Growth inhibition of human NCI-H522 cells after 7 days by celltiter-glo assay; conditions: NCI-H522, 168 h
Malme-3M = assay: Growth inhibition of human MALME-3M cells after 7 days by celltiter-glo assay; conditions: 168 h
LOX IMVI = assay: Growth inhibition of human LOXIMVI cells after 7 days by celltiter-glo assay; conditions: 168 h
KM12 = assay: Growth inhibition of human KM12 cells after 7 days by celltiter-glo assay; conditions: KM12, 168 h
HCT-15 = assay: Growth inhibition of human HCT15 cells after 7 days by celltiter-glo assay; conditions: HCT-15, 168 h
SF-268 [13] = assay: Growth inhibition of human SF268 cells at 10 uM after 7 days by celltiter-glo assay; conditions: SF-268, 168 h, read-out: GI
OVCAR-4 [14] = assay: Growth inhibition of human OVCAR4 cells at 10 uM after 7 days by celltiter-glo assay; conditions: OVCAR-4, 168 h, read-out: GI
[15] = Growth inhibition of human Hs 578T cells after 7 days by celltiter-glo assay; conditions: 168 h
[16] = Ratio of compound GI50 to chlorambucil GI50 for human H1299 cells
SF-539 = assay: Growth inhibition of human SF539 cells at 10 uM after 7 days by celltiter-glo assay; conditions: SF-539, 168 h, read-out: GI
U-251 [17] = assay: Growth inhibition of human U251 cells at 10 uM after 7 days by celltiter-glo assay; conditions: U-251, 168 h, read-out: GI
U-251 [18] = assay: Growth inhibition of human U251 cells after 7 days by celltiter-glo assay; conditions: U-251, 168 h
HL-60(TB) [19] = assay: Growth inhibition of human HL-60(TB) cells after 7 days by celltiter-glo assay; conditions: HL-60, 168 h
PC-3 [20] = assay: Growth inhibition of human PC3 cells after 7 days by celltiter-glo assay; conditions: PC-3, 168 h
MDA-MB-468 = assay: Growth inhibition of human MDA-MB-468 cells at 10 uM after 7 days by celltiter-glo assay; conditions: MDA-MB-468, 168 h, read-out: GI
PC-3 [21] = assay: Growth inhibition of human PC3 cells at 10 uM after 7 days by celltiter-glo assay; conditions: PC-3, 168 h, read-out: GI
UO-31 = assay: Growth inhibition of human UO31 cells at 10 uM after 7 days by celltiter-glo assay; conditions: UO-31, 168 h, read-out: GI
EKVX = assay: Growth inhibition of human EKVX cells after 7 days by celltiter-glo assay; conditions: 168 h
MCF7 = assay: Growth inhibition of human MCF7 cells at 10 uM after 7 days by celltiter-glo assay; conditions: MCF7, 168 h, read-out: GI
SNB-19 [22] = assay: Growth inhibition of human SNB19 cells after 7 days by celltiter-glo assay; conditions: SNB-19, 168 h
NCI-H460 = assay: Growth inhibition of human NCI-H460 cells after 7 days by celltiter-glo assay; conditions: NCI-H460, 168 h
SK-OV-3 = assay: Growth inhibition of human SKOV3 cells after 7 days by celltiter-glo assay; conditions: SK-OV-3, 168 h

Question: What does the source list for `CON(CCCc1ccc(N(CCCl)CCCl)cc1)C1OC[C@@H](O)[C@@H]1O` (stereo partly drawn)?
Answer: GI50 (SF-268 [1]): 1.5 µM; inhibition of growth at 10 µM (OVCAR-3): 85.3%; inhibition of growth at 10 µM (HL-60(TB) [2]): 68.3%; GI50 (T47D [3]): 6.37 µM; GI50 (MOLT-4): 1.22 µM; inhibition of growth at 10 µM (SNB-19 [4]): 65.8%; GI50 (M14): 9.25 µM; GI50 (A498): 21.8 µM; GI50 (BT-549 [5]): 13.4 µM; inhibition of growth at 10 µM (SNB-75): 66.7%; inhibition of growth at 10 µM (BT-549 [6]): 38.5%; GI50 (OVCAR-4 [7]): 29.2 µM; GI50 (OVCAR-8): 9.13 µM; GI50 (A549 [8]): 1.1 µM; inhibition of growth at 10 µM (T47D [9]): 48%; inhibition of growth at 10 µM (OVCAR-5): 111%; GI50 (COLO 205 [10]): 12.7 µM; inhibition of growth at 10 µM (786-0): 67.9%; GI50 (SK-MEL-28): 36.5 µM; GI50 (A549 [11]): 12.2 µM; GI50 (TK-10): 31.7 µM; inhibition of growth at 10 µM (SN12C): 54.2%; GI50 (NCI-H322M): > 100 µM; GI50 (NCI-H23): 7.15 µM; inhibition of growth at 10 µM (COLO 205 [12]): 93.3%; inhibition of growth at 10 µM (HOP-92): 58.8%; GI50 (NCI-H522): 10 µM; GI50 (Malme-3M): 20.2 µM; GI50 (LOX IMVI): 8.61 µM; GI50 (KM12): 30 µM; GI50 (HCT-15): 0.53 µM; inhibition of growth at 10 µM (SF-268 [13]): 67.8%; inhibition of growth at 10 µM (OVCAR-4 [14]): 77.2%; GI50 [15]: 24.7 µM; RatioGI50 [16]: 13; inhibition of growth at 10 µM (SF-539): 51.8%; inhibition of growth at 10 µM (U-251 [17]): 59.9%; GI50 (U-251 [18]): 13.1 µM; GI50 (HL-60(TB) [19]): 1.88 µM; GI50 (PC-3 [20]): 11.7 µM; inhibition of growth at 10 µM (MDA-MB-468): 43.9%; inhibition of growth at 10 µM (PC-3 [21]): 72.5%; inhibition of growth at 10 µM (UO-31): 54.4%; GI50 (EKVX): 37.9 µM; inhibition of growth at 10 µM (MCF7): 32.4%; GI50 (SNB-19 [22]): 33.4 µM; GI50 (NCI-H460): 1.7 µM; GI50 (SK-OV-3): 1.5 µM
